The values that follow come from ChEMBL document CHEMBL3808378, “Enantioselective syntheses of both enantiomers of 9'-dehydroxyimperanene and 7,8-dihydro-9'-dehydroxyimperanene and the comparison of biological activity between 9-norlignans and dihydroguaiaretic acids” (Bioorg Med Chem Lett, 2016).

One data set relates to Colletotrichum lagenaria. Description: Antifungal activity against Colletotrichum lagenarium assessed as mycelial colony growth levels at 0.25 mM after 5 days by caliper analysis. It is filed as functional.
The test system of a further data set is Bacillus subtilis. Description: Antibacterial activity against Bacillus subtilis subsp. subtilis NBRC 13719 after 24 hrs by 2 fold dilution method. It is filed as functional. Particulars: NBRC 13719, 24 h.
For a further data set, the system named is Alternaria alternata. Description: Antifungal activity against Alternaria alternata assessed as mycelial colony growth at 0.25 mM after 3 days by caliper analysis. The format is functional.
The next data set has as its system Fusarium solani. Nature of the data set: Antifungal activity against Fusarium solani assessed as mycelial colony growth levels at 0.25 mM after 3 days by caliper analysis. The format is functional.
Another data set deals with Culex pipiens. Nature of the data set: Antilarvicidal activity against Culex pipiens larvae after 24 hrs. The format is functional.
The subject of data set [1] is Lolium multiflorum. Description: Growth inhibition of Italian ryegrass assessed as reduction in root growth at 1 mM after 5 days. It is filed as functional. The conditions noted are these: 120 h, read-out: GI.
Data set [2] is described as follows: Selectivity index, ratio of IC50 for fall armyworm Sf9 cells to IC50 for Cytotoxicity against human HL60 cells. The format is toxicity, cell-based. Particulars: fall armyworm and human, read-out: Ratio IC50.
A short description of data set [3]: Cytotoxicity against human HL60 cells assessed as reduction in cell viability after 48 hrs by WST-8 reduction assay. The format is functional, cell-based. The conditions noted are these: HL-60, 48 h.
Data set [4] is described as follows: Cytotoxicity against fall armyworm Sf9 cells assessed as reduction in cell viability after 48 hrs by WST-8 reduction assay. It is filed as cell-based. The conditions noted are these: Spodoptera frugiperda, Sf9, 48 h. On the technique in general: Tetrazolium assays rely on reduction of a dye to a coloured formazan, in cell work by metabolically active cells.
Data set [5] is described as follows: Selectivity index, ratio of IC50 for fall armyworm sf9 cells to IC50 for Cytotoxicity against human HeLa cells. The format is toxicity, cell-based. The conditions noted are these: fall armyworm and human, read-out: Ratio IC50.
The test system of the next data set is Salmonella enterica. Description: Antibacterial activity against Salmonella choleraesuis subsp. choleraesuis JCM 6977 after 24 hrs by 2 fold dilution method. It is filed as functional. The conditions noted are these: JCM 6977, 24 h.
In a further data set the test system is HeLa. Nature of the data set: Cytotoxicity against human HeLa cells assessed as reduction in cell viability after 48 hrs by WST-8 reduction assay. It is filed as functional, cell-based.
Data set [6] in a line: Antifungal activity against Bipolaris oryzae assessed as mycelial colony growth levels at 0.25 mM after 3 days by caliper analysis. It is filed as functional.
Data set [7] concerns Lolium multiflorum. Description: Growth inhibition of Italian ryegrass assessed as reduction in shoot growth at 1 mM after 5 days. It is filed as functional. Particulars: 120 h, read-out: GI.
Another data set relates to Jonesia denitrificans. Nature of the data set: Antibacterial activity against Listeria denitrificans JCM 11481 after 24 hrs by 2 fold dilution method. Particulars: JCM 11481, 24 h. It is filed as functional.

Structures are written as SMILES. pIC50: −log10 of the molar value. In brackets after ≈: the same amount, converted by molar mass.

Regarding `COc1cc(C[C@H](C)[C@@H](C)Cc2ccc(O)c(OC)c2)ccc1O`, the Activity in the data set on Colletotrichum lagenaria was determined as 20.1%; in the data set with Alternaria alternata, 38%; in the data set on Fusarium solani, 34.5%; in data set [6] it was 49.9%. The MIC (usually the least concentration at which growth counts as inhibited) against Bacillus subtilis was 1560 µM (≈ 515 µg/mL); in the data set with Salmonella enterica, 3130 µM (≈ 1030 µg/mL); against Jonesia denitrificans, 390 µM (≈ 129 µg/mL). In the data set on Culex pipiens, this compound had an LD50 of 4.03 ×10⁻⁵ M. Also, the inhibition of growth at 1000 µM in the data set with Lolium multiflorum [1] was determined as 51.9%; in the data set on Lolium multiflorum [7] it was 17.8%. The selectivity ratio in data set [2] and in data set [5] was 1.3 throughout. Moreover, the pIC50 (as a rule, the negative decadic logarithm of the IC50, by convention in mol/L) in data set [3] is 4.49; in data set [4], 4.74; in the data set on HeLa, 4.62.

`COc1cc(/C=C/[C@@H](C)Cc2ccc(O)c(OC)c2)ccc1O`: the Activity in the data set on Colletotrichum lagenaria worked out at 67.8%; with Alternaria alternata, 43.3%; in the data set on Fusarium solani it was 96.1%; in data set [6], 57.6%. Moreover, the MIC against Bacillus subtilis is 6250 µM (≈ 1960 µg/mL); against Jonesia denitrificans, 3130 µM (≈ 984 µg/mL). In the data set with Culex pipiens, this compound registered an LD50 of 48 ×10⁻⁵ M. In addition, the inhibition of growth at 1000 µM came out at 14.8% with Lolium multiflorum [1] and 5.2% in the data set on Lolium multiflorum [7]. The pIC50 in data set [3] was 4.68; in data set [4] it was 4.52; in the data set on HeLa, 4.72.

As for `COc1cc(CC[C@@H](C)Cc2ccc(O)c(OC)c2)ccc1O`, the Activity turned out to be 39.4% in the data set with Colletotrichum lagenaria, 32.3% with Alternaria alternata, 70.1% in the data set on Fusarium solani and 47.2% in data set [6]. Also, the MIC in the data set with Bacillus subtilis is 3130 µM (≈ 990 µg/mL); against Salmonella enterica, 6250 µM (≈ 1980 µg/mL); in the data set with Jonesia denitrificans, 1560 µM (≈ 494 µg/mL). Also, in the data set on Culex pipiens, the LD50 stood at 9.9 ×10⁻⁵ M. For the same compound, the inhibition of growth at 1000 µM with Lolium multiflorum [1] was -7.01%; in the data set on Lolium multiflorum [7] it was 2.2%. Further, the pIC50 is 4.92 in data set [3], 4.60 in data set [4] and 4.68 with HeLa.

Turning to `COc1cc(CC[C@H](C)Cc2ccc(O)c(OC)c2)ccc1O`, the Activity in the data set with Colletotrichum lagenaria amounted to 43.1%; in the data set with Alternaria alternata, 44.4%; in the data set with Fusarium solani it was 95.4%; in data set [6], 46.4%. Moreover, the figures for the MIC in the data set with Bacillus subtilis and in the data set with Jonesia denitrificans were 3130 µM (≈ 990 µg/mL) and 1560 µM (≈ 494 µg/mL), respectively. In addition, the LD50 in the data set on Culex pipiens was 9.67 ×10⁻⁵ M. The inhibition of growth at 1000 µM was 13.3% with Lolium multiflorum [1] and 19.9% with Lolium multiflorum [7]. Besides, the selectivity ratio in [2] and in [5] was 2 in each case. The pIC50 is 5.25 in data set [3], 4.92 in data set [4] and 5.21 in the data set on HeLa.

Turning to `COc1cc(C[C@@H](C)[C@@H](C)Cc2ccc(O)c(OC)c2)ccc1O` [MESODIHYDROGUAIARETIC ACID], the Activity is given as 26% with Colletotrichum lagenaria, 30% with Alternaria alternata, 45.8% with Fusarium solani and 53.7% in data set [6]. Also, the MIC in the data set with Bacillus subtilis and against Jonesia denitrificans was 1560 µM (≈ 515 µg/mL) each time. Further, the LD50 in the data set on Culex pipiens is 5.12 ×10⁻⁵ M. Also, the inhibition of growth at 1000 µM with Lolium multiflorum [1] turned out to be 68.8%; in the data set with Lolium multiflorum [7], 20.9%. The selectivity ratio in data set [2] and in data set [5] was 1.3 throughout. In addition, the figures for the pIC50 (in data set [3]; in data set [4]; in the data set with HeLa) were 4.39, 4.77 and 4.55, respectively.

Turning to `COc1cc(C[C@@H](C)[C@H](C)Cc2ccc(O)c(OC)c2)ccc1O` [(-)-DIHYDROGUAIARETICACID], the Activity in the data set with Colletotrichum lagenaria came out at 33.8%; with Alternaria alternata, 32%; in the data set on Fusarium solani, 36.5%; in [6], 49.9%. The MIC was found to be 1560 µM (≈ 515 µg/mL) with Bacillus subtilis and 390 µM (≈ 129 µg/mL) against Jonesia denitrificans. The compound also gave an LD50 with Culex pipiens of 3.52 ×10⁻⁵ M. Moreover, the inhibition of growth at 1000 µM in the data set with Lolium multiflorum [1] was 18.4%; in the data set on Lolium multiflorum [7], 14.9%. Besides, the pIC50 in data set [3] is 4.66; in data set [4], 4.54; in the data set on HeLa it was 4.59.

Take `COc1cc(/C=C/[C@H](C)Cc2ccc(O)c(OC)c2)ccc1O`: the Activity in the data set on Colletotrichum lagenaria came to 49.4%; in the data set with Alternaria alternata, 66%; with Fusarium solani, 95.7%; in [6], 66.4%. Also, the MIC against Bacillus subtilis was 6250 µM (≈ 1960 µg/mL); against Jonesia denitrificans it was 3130 µM (≈ 984 µg/mL). In the data set with Culex pipiens, this compound registered an LD50 of 11 ×10⁻⁵ M. Besides, the inhibition of growth at 1000 µM in the data set with Lolium multiflorum [1] stood at 11.5%; in the data set with Lolium multiflorum [7] it was 14.8%. Besides, the pIC50 in [3] is 4.85; in [4], 4.49; in the data set with HeLa it was 4.74.
